Measurements from ChEMBL document CHEMBL4507317, “Data for DCP probe BAY-899” (2021).

Experiments:
[1] = molecular target: Serine/threonine-protein kinase 33 (Homo sapiens) (UniProt Q9BYT3); conditions: Compound concentration 1000.0 nM
[2] = system: Phosphatidylinositol 4,5-bisphosphate 3-kinase catalytic subunit alpha isoform (Homo sapiens), P42336 [H1047L]; conditions: Compound concentration 1000.0 nM
[3] = molecular target: Homeodomain-interacting protein kinase 1 (Homo sapiens) (UniProt Q86Z02); conditions: Compound concentration 1000.0 nM
[4] = molecular target: Serine/threonine-protein kinase MRCK beta (Homo sapiens) (UniProt Q9Y5S2); conditions: Compound concentration 1000.0 nM
[5] = molecular target: Myosin light chain kinase family member 4 (Homo sapiens) (UniProt Q86YV6); conditions: Compound concentration 1000.0 nM
[6] = molecular target: Uncharacterized serine/threonine-protein kinase SBK3 (Homo sapiens) (UniProt P0C264); conditions: Compound concentration 1000.0 nM
Chain of Uncharacterized serine/threonine-protein kinase SBK3 (Homo sapiens) (P0C264 whole entry): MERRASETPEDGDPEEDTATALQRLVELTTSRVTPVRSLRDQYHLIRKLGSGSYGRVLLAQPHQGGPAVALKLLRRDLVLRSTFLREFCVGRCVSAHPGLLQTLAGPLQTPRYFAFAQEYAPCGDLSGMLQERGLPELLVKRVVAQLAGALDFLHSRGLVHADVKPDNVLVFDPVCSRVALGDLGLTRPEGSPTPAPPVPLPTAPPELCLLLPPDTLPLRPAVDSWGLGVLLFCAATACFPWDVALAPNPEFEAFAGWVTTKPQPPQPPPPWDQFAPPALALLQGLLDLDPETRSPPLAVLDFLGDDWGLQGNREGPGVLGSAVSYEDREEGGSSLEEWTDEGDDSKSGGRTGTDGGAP

[7] = molecular target: Dual specificity tyrosine-phosphorylation-regulated kinase 1A (Homo sapiens) (UniProt Q13627); conditions: Compound concentration 1000.0 nM
[8] = molecular target: Calcium/calmodulin-dependent protein kinase kinase 1 (Homo sapiens) (UniProt Q8N5S9); conditions: Compound concentration 1000.0 nM
[9] = molecular target: Receptor-type tyrosine-protein kinase FLT3 (Homo sapiens) (UniProt P36888); conditions: Compound concentration 1000.0 nM
[10] = molecular target: Ribosomal protein S6 kinase alpha-2 (Homo sapiens) (UniProt Q15349); conditions: Compound concentration 1000.0 nM
[11] = molecular target: Serine/threonine-protein kinase MRCK alpha (Homo sapiens) (UniProt Q5VT25); conditions: Compound concentration 1000.0 nM
[12] = molecular target: Mitogen-activated protein kinase kinase kinase kinase 4 (Homo sapiens) (UniProt O95819); conditions: Compound concentration 1000.0 nM
[13] = molecular target: LIM domain kinase 1 (Homo sapiens) (UniProt P53667); conditions: Compound concentration 1000.0 nM
[14] = molecular target: Serine/threonine-protein kinase TNNI3K (Homo sapiens) (UniProt Q59H18); conditions: Compound concentration 1000.0 nM
[15] = molecular target: Activin receptor type-2B (Homo sapiens) (UniProt Q13705); conditions: Compound concentration 1000.0 nM
[16] = system: Receptor-type tyrosine-protein kinase FLT3 (Homo sapiens), P36888 [R834Q]; conditions: Compound concentration 1000.0 nM
[17] = molecular target: T1, Muscarinic acetylcholine receptor M4 (Homo sapiens) (UniProt P08173); conditions: Compound concentration 10.0 uM
T1 sequence (whole entry): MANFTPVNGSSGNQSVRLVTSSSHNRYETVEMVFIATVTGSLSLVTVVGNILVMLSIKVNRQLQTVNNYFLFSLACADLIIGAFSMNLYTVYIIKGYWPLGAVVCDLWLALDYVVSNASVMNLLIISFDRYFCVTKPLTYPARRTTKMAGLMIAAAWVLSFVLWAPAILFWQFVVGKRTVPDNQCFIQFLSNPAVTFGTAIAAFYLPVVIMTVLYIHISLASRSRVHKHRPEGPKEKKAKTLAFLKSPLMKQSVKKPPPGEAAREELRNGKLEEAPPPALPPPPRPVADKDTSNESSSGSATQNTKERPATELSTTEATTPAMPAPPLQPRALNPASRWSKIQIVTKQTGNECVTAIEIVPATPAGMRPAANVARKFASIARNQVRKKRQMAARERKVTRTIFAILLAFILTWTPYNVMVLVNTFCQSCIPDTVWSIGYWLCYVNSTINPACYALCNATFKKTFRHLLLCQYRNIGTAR

[18] = molecular target: Rho-associated protein kinase 1 (Homo sapiens) (UniProt Q13464); conditions: Compound concentration 1000.0 nM
[19] = molecular target: Tyrosine-protein kinase TXK (Homo sapiens) (UniProt P42681); conditions: Compound concentration 1000.0 nM
Chain of Tyrosine-protein kinase TXK (Homo sapiens) (P42681 whole entry): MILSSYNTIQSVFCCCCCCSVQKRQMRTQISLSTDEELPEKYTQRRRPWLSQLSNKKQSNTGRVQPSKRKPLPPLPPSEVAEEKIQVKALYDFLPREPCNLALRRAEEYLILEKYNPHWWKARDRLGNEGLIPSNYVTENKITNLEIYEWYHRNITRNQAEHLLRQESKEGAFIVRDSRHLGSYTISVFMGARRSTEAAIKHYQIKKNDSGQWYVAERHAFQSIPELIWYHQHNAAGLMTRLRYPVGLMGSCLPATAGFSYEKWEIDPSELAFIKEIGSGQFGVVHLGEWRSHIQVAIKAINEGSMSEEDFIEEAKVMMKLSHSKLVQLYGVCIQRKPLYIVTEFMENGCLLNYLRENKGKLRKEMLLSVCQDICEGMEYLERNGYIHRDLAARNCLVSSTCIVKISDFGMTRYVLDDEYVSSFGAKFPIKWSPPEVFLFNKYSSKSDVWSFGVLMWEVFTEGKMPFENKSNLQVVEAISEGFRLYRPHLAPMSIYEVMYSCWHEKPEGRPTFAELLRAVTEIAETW

[20] = molecular target: Macrophage colony-stimulating factor 1 receptor (Homo sapiens) (UniProt P07333); conditions: Compound concentration 1000.0 nM
[21] = molecular target: Testis-specific serine/threonine-protein kinase 1 (Homo sapiens) (UniProt Q9BXA7); conditions: Compound concentration 1000.0 nM
[22] = molecular target: Ephrin type-A receptor 8 (Homo sapiens) (UniProt P29322); conditions: Compound concentration 1000.0 nM
[23] = molecular target: Serine/threonine-protein kinase RIO2 (Homo sapiens) (UniProt Q9BVS4); conditions: Compound concentration 1000.0 nM
[24] = molecular target: Glycogen synthase kinase-3 beta (Homo sapiens) (UniProt P49841); conditions: Compound concentration 1000.0 nM
[25] = molecular target: Ribosomal protein S6 kinase alpha-6 (Homo sapiens) (UniProt Q9UK32); conditions: Compound concentration 1000.0 nM
[26] = molecular target: Mitogen-activated protein kinase kinase kinase 19 (Homo sapiens) (UniProt Q56UN5); conditions: Compound concentration 1000.0 nM
[27] = molecular target: Serine/threonine-protein kinase MARK2 (Homo sapiens) (UniProt Q7KZI7); conditions: Compound concentration 1000.0 nM
[28] = molecular target: Serine/threonine-protein kinase 35 (Homo sapiens) (UniProt Q8TDR2); conditions: Compound concentration 1000.0 nM
Chain of Serine/threonine-protein kinase 35 (Homo sapiens) (Q8TDR2 whole entry): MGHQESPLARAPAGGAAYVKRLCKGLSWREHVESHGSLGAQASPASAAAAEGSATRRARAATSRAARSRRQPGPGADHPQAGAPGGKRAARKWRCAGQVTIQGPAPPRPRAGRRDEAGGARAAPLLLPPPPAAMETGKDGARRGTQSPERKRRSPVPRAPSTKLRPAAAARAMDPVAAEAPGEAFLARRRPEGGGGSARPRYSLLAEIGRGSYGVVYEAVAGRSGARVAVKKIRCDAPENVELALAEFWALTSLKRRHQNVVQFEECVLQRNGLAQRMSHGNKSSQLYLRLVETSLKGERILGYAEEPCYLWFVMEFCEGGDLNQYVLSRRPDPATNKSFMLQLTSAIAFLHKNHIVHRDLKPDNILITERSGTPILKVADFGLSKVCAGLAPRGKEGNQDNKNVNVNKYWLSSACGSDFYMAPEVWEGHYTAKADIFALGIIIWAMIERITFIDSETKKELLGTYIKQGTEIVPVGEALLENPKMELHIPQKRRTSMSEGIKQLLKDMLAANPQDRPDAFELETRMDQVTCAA

[29] = molecular target: Interleukin-1 receptor-associated kinase 4 (Homo sapiens) (UniProt Q9NWZ3); conditions: Compound concentration 1000.0 nM
[30] = molecular target: Homeodomain-interacting protein kinase 3 (Homo sapiens) (UniProt Q9H422); conditions: Compound concentration 1000.0 nM
Chain of Homeodomain-interacting protein kinase 3 (Homo sapiens) (Q9H422 whole entry, looked up): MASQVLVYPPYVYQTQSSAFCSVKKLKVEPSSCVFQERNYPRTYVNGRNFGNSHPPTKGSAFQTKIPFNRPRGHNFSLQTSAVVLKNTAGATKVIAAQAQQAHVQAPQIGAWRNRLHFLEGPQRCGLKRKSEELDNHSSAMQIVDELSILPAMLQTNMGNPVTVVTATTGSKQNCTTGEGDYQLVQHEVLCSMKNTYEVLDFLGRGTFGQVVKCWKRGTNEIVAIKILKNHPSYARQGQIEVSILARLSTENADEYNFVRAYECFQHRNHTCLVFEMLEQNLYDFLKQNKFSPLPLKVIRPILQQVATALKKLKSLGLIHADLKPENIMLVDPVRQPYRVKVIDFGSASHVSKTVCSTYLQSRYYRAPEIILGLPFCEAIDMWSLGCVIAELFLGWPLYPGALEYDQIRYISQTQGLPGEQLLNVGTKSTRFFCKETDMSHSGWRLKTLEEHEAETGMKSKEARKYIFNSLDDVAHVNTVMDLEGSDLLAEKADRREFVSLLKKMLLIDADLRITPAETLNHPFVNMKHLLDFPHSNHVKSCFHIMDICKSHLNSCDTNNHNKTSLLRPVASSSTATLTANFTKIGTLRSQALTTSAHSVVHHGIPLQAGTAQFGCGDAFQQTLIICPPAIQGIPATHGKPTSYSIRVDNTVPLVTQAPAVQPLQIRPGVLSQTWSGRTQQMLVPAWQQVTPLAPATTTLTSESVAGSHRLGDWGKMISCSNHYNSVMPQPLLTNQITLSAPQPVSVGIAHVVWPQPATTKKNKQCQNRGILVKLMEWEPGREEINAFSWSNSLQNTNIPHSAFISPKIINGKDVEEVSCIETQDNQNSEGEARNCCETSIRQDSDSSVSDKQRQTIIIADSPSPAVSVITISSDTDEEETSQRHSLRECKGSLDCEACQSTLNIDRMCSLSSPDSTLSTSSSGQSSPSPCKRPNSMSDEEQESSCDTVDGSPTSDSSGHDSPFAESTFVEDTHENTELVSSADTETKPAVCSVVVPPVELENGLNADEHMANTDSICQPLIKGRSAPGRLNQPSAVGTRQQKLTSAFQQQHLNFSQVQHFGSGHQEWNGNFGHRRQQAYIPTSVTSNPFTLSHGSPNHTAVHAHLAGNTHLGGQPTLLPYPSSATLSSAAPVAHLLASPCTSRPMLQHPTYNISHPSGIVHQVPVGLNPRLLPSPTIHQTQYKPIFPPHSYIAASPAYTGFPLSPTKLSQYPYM

[31] = molecular target: Muscarinic acetylcholine receptor M2 (Homo sapiens) (UniProt P08172); conditions: Compound concentration 10.0 uM
Chain of Muscarinic acetylcholine receptor M2 (Homo sapiens) (P08172 whole entry): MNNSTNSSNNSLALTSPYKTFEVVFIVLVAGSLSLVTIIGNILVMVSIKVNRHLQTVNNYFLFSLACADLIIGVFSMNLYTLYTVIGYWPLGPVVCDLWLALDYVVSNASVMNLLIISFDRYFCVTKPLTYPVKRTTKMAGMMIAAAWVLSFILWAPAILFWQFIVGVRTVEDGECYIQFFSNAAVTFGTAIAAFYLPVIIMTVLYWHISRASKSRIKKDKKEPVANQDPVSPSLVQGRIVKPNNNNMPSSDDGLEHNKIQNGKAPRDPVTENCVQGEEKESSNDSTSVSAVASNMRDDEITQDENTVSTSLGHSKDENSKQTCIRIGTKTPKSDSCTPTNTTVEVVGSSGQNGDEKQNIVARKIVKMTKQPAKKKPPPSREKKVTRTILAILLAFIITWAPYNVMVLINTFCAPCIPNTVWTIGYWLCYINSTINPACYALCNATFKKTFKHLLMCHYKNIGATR

[32] = system: Tyrosine-protein kinase ABL1 (Homo sapiens), P00519 [E255K]; conditions: Compound concentration 1000.0 nM
[33] = molecular target: Activin receptor type-1-like (Homo sapiens) (UniProt P37023); conditions: Compound concentration 1000.0 nM
[34] = molecular target: Mitogen-activated protein kinase 15 (Homo sapiens) (UniProt Q8TD08); conditions: Compound concentration 1000.0 nM
[35] = system: Tyrosine-protein kinase ABL1 (Homo sapiens), P00519 [H396P]; conditions: Compound concentration 1000.0 nM
[36] = molecular target: Beta-adrenergic receptor kinase 1 (Homo sapiens) (UniProt P25098); conditions: Compound concentration 1000.0 nM
[37] = molecular target: Phosphatidylinositol 4-phosphate 5-kinase type-1 gamma (Homo sapiens) (UniProt O60331); conditions: Compound concentration 1000.0 nM
Chain of Phosphatidylinositol 4-phosphate 5-kinase type-1 gamma (Homo sapiens) (O60331 whole entry): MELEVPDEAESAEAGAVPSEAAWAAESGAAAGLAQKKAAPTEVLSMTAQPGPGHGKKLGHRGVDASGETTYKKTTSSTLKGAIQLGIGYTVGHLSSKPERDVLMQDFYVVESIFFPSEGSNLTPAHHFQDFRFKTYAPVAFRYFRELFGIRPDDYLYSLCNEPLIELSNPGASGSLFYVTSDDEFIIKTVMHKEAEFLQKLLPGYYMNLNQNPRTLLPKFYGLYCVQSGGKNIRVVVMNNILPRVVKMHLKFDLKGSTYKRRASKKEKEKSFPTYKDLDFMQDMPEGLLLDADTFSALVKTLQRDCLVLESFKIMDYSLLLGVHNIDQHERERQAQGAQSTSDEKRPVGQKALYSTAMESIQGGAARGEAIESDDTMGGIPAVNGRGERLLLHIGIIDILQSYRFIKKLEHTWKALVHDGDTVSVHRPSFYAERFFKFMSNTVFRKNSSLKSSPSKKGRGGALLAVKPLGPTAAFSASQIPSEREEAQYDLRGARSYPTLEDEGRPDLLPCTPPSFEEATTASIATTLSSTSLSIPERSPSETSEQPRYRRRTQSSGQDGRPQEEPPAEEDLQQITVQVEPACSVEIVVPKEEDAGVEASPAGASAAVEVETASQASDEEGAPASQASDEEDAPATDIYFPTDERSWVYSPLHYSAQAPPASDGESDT

[38] = molecular target: Tyrosine-protein kinase JAK1 (Homo sapiens) (UniProt P23458); conditions: Compound concentration 1000.0 nM

Chain of Phosphatidylinositol 4,5-bisphosphate 3-kinase catalytic subunit alpha isoform (Homo sapiens), P42336 [H1047L] (P42336 whole entry H1047L, canonical isoform): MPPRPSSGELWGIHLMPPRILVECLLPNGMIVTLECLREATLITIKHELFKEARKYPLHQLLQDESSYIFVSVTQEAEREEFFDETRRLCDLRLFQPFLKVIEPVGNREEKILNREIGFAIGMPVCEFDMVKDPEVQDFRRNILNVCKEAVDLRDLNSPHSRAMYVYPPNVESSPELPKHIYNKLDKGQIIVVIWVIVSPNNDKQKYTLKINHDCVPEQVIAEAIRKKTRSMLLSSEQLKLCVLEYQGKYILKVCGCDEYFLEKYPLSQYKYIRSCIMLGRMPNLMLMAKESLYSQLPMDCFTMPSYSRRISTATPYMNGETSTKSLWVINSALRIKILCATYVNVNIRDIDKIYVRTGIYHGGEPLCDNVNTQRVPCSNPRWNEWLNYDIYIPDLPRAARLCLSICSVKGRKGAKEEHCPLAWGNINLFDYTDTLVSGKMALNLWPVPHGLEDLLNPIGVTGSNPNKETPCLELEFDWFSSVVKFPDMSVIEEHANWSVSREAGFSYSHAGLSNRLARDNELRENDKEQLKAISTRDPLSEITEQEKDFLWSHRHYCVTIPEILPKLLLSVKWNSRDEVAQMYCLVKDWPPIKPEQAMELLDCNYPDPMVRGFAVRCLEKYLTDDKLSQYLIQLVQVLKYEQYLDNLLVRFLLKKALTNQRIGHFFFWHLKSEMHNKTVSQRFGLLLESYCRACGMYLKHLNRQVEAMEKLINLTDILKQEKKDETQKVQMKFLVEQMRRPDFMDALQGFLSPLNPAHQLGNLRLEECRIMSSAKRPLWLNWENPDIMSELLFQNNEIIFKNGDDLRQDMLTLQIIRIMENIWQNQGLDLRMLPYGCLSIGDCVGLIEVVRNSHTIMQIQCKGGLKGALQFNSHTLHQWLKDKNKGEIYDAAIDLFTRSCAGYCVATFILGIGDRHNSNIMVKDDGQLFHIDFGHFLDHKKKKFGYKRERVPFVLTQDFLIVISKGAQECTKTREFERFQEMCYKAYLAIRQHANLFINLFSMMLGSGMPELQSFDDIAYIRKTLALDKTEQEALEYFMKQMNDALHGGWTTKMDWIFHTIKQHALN

O=C(Nc1cnc(Oc2ccc(F)cc2)nc1)N1CCc2ncccc2[C@@H]1c1ccc(F)cc1 [BAY-899]
inactive: residual activity [1] 69% | residual activity [2] 92% | residual activity [3] 70% | residual activity [4] 73% | residual activity [5] 88% | residual activity [6] 90% | residual activity [7] 100% | residual activity [8] 92% | residual activity [9] 84% | residual activity [10] 97% | residual activity [11] 96% | residual activity [12] 86% | residual activity [13] 99% | residual activity [14] 100% | residual activity [15] 85% | residual activity [16] 99% | inhibition [17] 22.8% | residual activity [18] 100% | residual activity [19] 87% | residual activity [20] 93% | residual activity [21] 100% | residual activity [22] 88% | residual activity [23] 96% | residual activity [24] 100% | residual activity [25] 100% | residual activity [26] 81% | residual activity [27] 90% | residual activity [28] 71% | residual activity [29] 95% | residual activity [30] 90% | inhibition [31] -5.1% | residual activity [32] 100% | residual activity [33] 99% | residual activity [34] 93% | residual activity [35] 97% | residual activity [36] 90% | residual activity [37] 100% | residual activity [38] 86%

O=C(Nc1ccc(Oc2ccc(F)cc2)cc1)N1CCc2ncccc2[C@H]1c1ccc(F)cc1 [BAY-897]
inactive: residual activity [1] 50% | residual activity [2] 85% | residual activity [3] 96% | residual activity [4] 88% | residual activity [5] 97% | residual activity [6] 70% | residual activity [7] 95% | residual activity [8] 99% | residual activity [9] 77% | residual activity [10] 100% | residual activity [11] 94% | residual activity [12] 100% | residual activity [13] 85% | residual activity [14] 100% | residual activity [15] 100% | residual activity [16] 97% | inhibition [17] 9.29% | residual activity [18] 100% | residual activity [19] 100% | residual activity [20] 95% | residual activity [21] 87% | residual activity [22] 92% | residual activity [23] 94% | residual activity [24] 100% | residual activity [25] 91% | residual activity [26] 88% | residual activity [27] 82% | residual activity [28] 80% | residual activity [29] 96% | residual activity [30] 92% | inhibition [31] -1.78% | residual activity [32] 100% | residual activity [33] 81% | residual activity [34] 94% | residual activity [35] 98% | residual activity [36] 92% | residual activity [37] 96% | residual activity [38] 94%
